# Results published in PubChem BioAssay AID180 (DTP/NCI, 2004).
# Where “and” joins values, the source holds several entries; their conditions need not be identical. Equal entries are not always repeated.
# System: BDF1 mice, Adenocarcinoma 755 s.c., tumor weight T/C
# Test: NCI In Vivo Anticancer Drug Screen. Data for tumor model Adenocarcinoma 755 (subcutaneous) in B6D2F1 (BDF1) mice
# Details: endpoint: mean tumor weight, schedule: Q01DX011 (ip), higher = larger tumour
# In short: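 Values express treated (T) relative to vehicle-dosed control (C) animals, based on survival or tumour size measured after compound treatment of mice bearing a transplanted tumour.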
structure (smiles),measurement,setting,value
CO[C@@]12[C@H](COC(N)=O)C3=C(C(=O)C(C)=C(N)C3=O)N1C[C@@H]1N[C@@H]12,T/C,"dose: 0.1 mg/kg/injection, vehicle: carboxymethylcellulose (CMC)",82 % of control
same,T/C,"dose: 0.1 mg/kg/injection, vehicle: methylcellulose (MC)",60 % of control
same,T/C,"dose: 0.2 mg/kg/injection, vehicle: carboxymethylcellulose (CMC)",79 % of control
same,T/C,"dose: 0.25 mg/kg/injection, vehicle: carboxymethylcellulose (CMC)",69 % of control
same,T/C,"dose: 0.32 mg/kg/injection, vehicle: carboxymethylcellulose (CMC)",92 % of control and 116 % of control
same,T/C,"dose: 0.5 mg/kg/injection, vehicle: carboxymethylcellulose (CMC)",17 % of control
same,T/C,"dose: 0.5 mg/kg/injection, vehicle: methylcellulose (MC)",26 % of control
same,T/C,"dose: 0.53 mg/kg/injection, vehicle: carboxymethylcellulose (CMC)",63 % of control and 71 % of control
same,T/C,"dose: 0.82 mg/kg/injection, vehicle: carboxymethylcellulose (CMC)",22 % of control
same,T/C,"dose: 1.0 mg/kg/injection, vehicle: carboxymethylcellulose (CMC)",8 % of control
same,T/C,"dose: 1.0 mg/kg/injection, vehicle: methylcellulose (MC)",12 % of control
same,T/C,"dose: 1.02 mg/kg/injection, vehicle: carboxymethylcellulose (CMC)",14 % of control
same,T/C,"dose: 1.36 mg/kg/injection, vehicle: carboxymethylcellulose (CMC)",5 % of control
same,T/C,"dose: 2.0 mg/kg/injection, vehicle: carboxymethylcellulose (CMC)",1 % of control
same,T/C,"dose: 180.0 micrograms/kg/injection, vehicle: carboxymethylcellulose (CMC)",89 % of control
same,T/C,"dose: 300.0 micrograms/kg/injection, vehicle: carboxymethylcellulose (CMC)",86 % of control
same,T/C,"dose: 450.0 micrograms/kg/injection, vehicle: carboxymethylcellulose (CMC)",24 % of control and 29 % of control
same,T/C,"dose: 512.0 micrograms/kg/injection, vehicle: carboxymethylcellulose (CMC)",87 % of control
same,T/C,"dose: 900.0 micrograms/kg/injection, vehicle: carboxymethylcellulose (CMC)",5 % of control
same,T/C,"dose: 1025.0 micrograms/kg/injection, vehicle: carboxymethylcellulose (CMC)",63 % of control
same,T/C,"dose: 2050.0 micrograms/kg/injection, vehicle: carboxymethylcellulose (CMC)",8 % of control
Cc1ccc(N2CCN(CCCN3CCN(c4ccccc4Cl)CC3)CC2)cc1,T/C,"dose: 6.0 mg/kg/injection, vehicle: carboxymethylcellulose (CMC)",84 % of control
same,T/C,"dose: 11.0 mg/kg/injection, vehicle: methylcellulose (MC)",29 % of control
same,T/C,"dose: 12.0 mg/kg/injection, vehicle: carboxymethylcellulose (CMC)",64 % of control
same,T/C,"dose: 22.0 mg/kg/injection, vehicle: methylcellulose (MC)",34 % of control
same,T/C,"dose: 22.5 mg/kg/injection, vehicle: carboxymethylcellulose (CMC)",50 % of control and 55 % of control
same,T/C,"dose: 22.5 mg/kg/injection, vehicle: other",93 % of control
same,T/C,"dose: 24.0 mg/kg/injection, vehicle: carboxymethylcellulose (CMC)",65 % of control
same,T/C,"dose: 45.0 mg/kg/injection, vehicle: carboxymethylcellulose (CMC)",50 % of control and 59 % of control
same,T/C,"dose: 45.0 mg/kg/injection, vehicle: methylcellulose (MC)",12 % of control
same,T/C,"dose: 45.0 mg/kg/injection, vehicle: other",69 % of control
same,T/C,"dose: 48.0 mg/kg/injection, vehicle: carboxymethylcellulose (CMC)",63 % of control
same,T/C,"dose: 90.0 mg/kg/injection, vehicle: carboxymethylcellulose (CMC)",43 % of control and 62 % of control
same,T/C,"dose: 96.0 mg/kg/injection, vehicle: carboxymethylcellulose (CMC)",43 % of control
O=C1C=Cc2ccc(O)cc2C1=O,T/C,"dose: 2.0 mg/kg/injection, vehicle: saline",103 % of control
same,T/C,"dose: 8.0 mg/kg/injection, vehicle: saline",50 % of control
CCN(CC)CCC(=O)N1CCN(C(=O)CCN(CC)CC)CC1,T/C,"dose: 3.8 mg/kg/injection, vehicle: methylcellulose (MC)",110 % of control
same,T/C,"dose: 7.5 mg/kg/injection, vehicle: methylcellulose (MC)",113 % of control
same,T/C,"dose: 15.0 mg/kg/injection, vehicle: methylcellulose (MC)",71 % of control
same,T/C,"dose: 30.0 mg/kg/injection, vehicle: methylcellulose (MC)",79 % of control
same,T/C,"dose: 30.0 mg/kg/injection, vehicle: saline",119 % of control
same,T/C,"dose: 60.0 mg/kg/injection, vehicle: saline",105 % of control
